Each structure is given as a SMILES string. The source made the active and inactive calls. The calls are words filed in the database; no cut-off is given here.

The text below walks through data of ChEMBL document CHEMBL1151901, “3-(aminomethyl)piperazine-2,5-dione as a novel NMDA glycine site inhibitor from the chemical universe database GDB” (Bioorg Med Chem Lett, 2009).

The target of assay [1] is Glutamate NMDA receptor; Grin1/Grin2a (Rattus norvegicus, UniProt P35439+Q00959). As to the kind of experiment: Activity at rat NR1/NR2A receptor expressed in Xenopus oocytes assessed as inhibition of glycine-induced electrophysiological response. Type of assay: cell-based, Oocyte.
The target of assay [2] is Glutamate NMDA receptor (Rattus norvegicus) (UniProt P35439+Q00959+Q00960+Q00961+Q62645+Q8VHN2+Q9R1M7). Nature of the assay: Displacement of [3H]MDL105519 from rat brain NMDA receptor glycine binding site at 100 uM by Packard Topcount scintillation counter. Background: In a radioligand displacement assay an active substance lowers the binding of a labelled ligand.

Sequence of Glutamate NMDA receptor; Grin1/Grin2a (Q00959 whole entry, other chains not shown): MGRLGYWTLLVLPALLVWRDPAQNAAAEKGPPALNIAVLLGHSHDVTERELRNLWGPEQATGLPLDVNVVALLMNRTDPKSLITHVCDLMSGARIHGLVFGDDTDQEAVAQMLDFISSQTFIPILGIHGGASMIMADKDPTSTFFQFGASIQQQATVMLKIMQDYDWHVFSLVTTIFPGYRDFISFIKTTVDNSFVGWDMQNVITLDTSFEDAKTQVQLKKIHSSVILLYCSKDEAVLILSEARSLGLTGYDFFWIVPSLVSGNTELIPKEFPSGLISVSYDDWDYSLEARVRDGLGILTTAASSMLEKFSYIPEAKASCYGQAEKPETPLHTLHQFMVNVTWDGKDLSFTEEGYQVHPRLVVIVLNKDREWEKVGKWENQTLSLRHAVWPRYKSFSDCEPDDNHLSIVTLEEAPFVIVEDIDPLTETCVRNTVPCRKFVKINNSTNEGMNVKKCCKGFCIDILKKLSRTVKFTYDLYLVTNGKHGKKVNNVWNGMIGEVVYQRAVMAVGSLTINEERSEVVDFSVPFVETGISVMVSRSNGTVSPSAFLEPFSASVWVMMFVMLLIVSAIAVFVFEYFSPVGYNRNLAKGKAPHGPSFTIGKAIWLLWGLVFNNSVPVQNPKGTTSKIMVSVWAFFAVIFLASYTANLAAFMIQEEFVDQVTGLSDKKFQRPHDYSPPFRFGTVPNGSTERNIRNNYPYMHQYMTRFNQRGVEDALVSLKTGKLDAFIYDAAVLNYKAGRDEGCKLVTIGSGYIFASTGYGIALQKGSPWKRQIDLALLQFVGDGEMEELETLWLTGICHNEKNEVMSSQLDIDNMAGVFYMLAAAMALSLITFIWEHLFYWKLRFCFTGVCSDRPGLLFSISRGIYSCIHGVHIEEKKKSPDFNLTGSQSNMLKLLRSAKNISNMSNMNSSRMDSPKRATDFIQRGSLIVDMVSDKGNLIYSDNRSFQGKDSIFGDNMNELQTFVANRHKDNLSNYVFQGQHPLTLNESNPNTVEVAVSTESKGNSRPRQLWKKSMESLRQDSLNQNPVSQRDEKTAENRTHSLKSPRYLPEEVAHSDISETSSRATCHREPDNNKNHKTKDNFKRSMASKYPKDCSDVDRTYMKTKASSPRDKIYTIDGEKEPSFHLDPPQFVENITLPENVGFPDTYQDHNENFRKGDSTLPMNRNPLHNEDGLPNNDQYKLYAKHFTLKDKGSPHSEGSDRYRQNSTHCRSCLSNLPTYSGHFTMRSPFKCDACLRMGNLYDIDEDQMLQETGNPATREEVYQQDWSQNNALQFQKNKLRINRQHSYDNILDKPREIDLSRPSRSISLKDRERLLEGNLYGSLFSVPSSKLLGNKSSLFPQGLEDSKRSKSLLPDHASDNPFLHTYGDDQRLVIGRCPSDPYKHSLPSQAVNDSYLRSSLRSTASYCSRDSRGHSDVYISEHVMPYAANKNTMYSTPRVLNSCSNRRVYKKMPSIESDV

In the case of `NCCCC(=O)NCC(=O)O`, the IC50 (in general, the concentration at which inhibition is half-maximal) in assay [1] was 65 µM.
`NC[C@@H]1NC(=O)CNC1=O`: in assay [2], the inhibition (usually the change of the read-out against control, counted positive when it falls) stood at 30%. Further, in assay [1], the IC50 was 370 µM and the equilibrium dissociation constant (Kd) (commonly a measure of binding affinity in units of concentration) is 50 µM.
For `C[C@H](N)CC(=O)NCC(=O)O`, the IC50 in assay [1] came to 28 µM.
Take `NCC1CNC(=O)C(=O)N1` (racemic): in assay [2], the result was inactive.
